Laboratory results from patent publication US20210177814A1, “USE OF GUANABENZ OR DERIVATES THEREOF FOR THE TREATMENT OF TYPE I IFN-DEPENDENT PATHOLOGIES” (INSERM (Institut National de la Santé et de la Recherche …, priority 2018, published 2021).

Molecular target: T1, hTLR7 (Homo sapiens, UniProt Q9NYK1)
T1 construct: expressed in transfected cells; host or cells: HEK-Blue (HEK 293) hTLR7 reporter cells
T1 sequence (Q9NYK1 27-1049): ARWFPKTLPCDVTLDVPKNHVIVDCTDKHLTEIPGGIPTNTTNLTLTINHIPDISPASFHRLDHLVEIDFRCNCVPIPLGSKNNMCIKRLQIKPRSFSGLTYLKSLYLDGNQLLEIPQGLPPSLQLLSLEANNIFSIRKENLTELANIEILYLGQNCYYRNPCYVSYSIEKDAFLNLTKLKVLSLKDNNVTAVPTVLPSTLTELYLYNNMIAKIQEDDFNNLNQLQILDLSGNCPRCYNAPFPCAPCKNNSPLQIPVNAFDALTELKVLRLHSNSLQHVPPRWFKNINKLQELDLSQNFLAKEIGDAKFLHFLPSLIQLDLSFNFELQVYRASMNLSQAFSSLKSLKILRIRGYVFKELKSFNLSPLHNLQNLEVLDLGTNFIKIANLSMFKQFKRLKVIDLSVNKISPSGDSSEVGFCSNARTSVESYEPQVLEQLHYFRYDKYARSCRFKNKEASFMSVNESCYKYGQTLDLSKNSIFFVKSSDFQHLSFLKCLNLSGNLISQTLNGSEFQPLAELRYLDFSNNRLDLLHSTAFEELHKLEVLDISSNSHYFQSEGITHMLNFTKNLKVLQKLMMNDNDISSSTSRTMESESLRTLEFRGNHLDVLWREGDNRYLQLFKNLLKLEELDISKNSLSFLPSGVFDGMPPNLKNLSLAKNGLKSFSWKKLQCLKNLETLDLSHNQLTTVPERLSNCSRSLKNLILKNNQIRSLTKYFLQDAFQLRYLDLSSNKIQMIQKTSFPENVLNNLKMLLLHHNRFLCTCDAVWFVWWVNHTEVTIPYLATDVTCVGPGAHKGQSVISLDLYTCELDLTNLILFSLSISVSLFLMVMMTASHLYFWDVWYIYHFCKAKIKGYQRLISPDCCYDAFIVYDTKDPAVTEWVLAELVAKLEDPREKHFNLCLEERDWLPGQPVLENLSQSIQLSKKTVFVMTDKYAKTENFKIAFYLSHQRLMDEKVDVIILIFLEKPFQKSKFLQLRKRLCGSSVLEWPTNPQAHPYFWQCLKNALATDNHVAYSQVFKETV
Assay: HEK-Blue hTLR7 SEAP reporter assay
Type: cell-based
Conditions: 5 μg/mL imiquimod, GBZ 50 μM
Procedure: FIG. 1: Guanabenz inhibits TLR3 and TLR9 activation in mouse Flt3-L DCs and human blood pDCs. A) Sorted bone marrow derived Flt3L-DCs were activated for 6 h with 10 μg/mL poly I:C LMW (TLR3 in DC1) or 1 μM ODN 1585 (TLR9 in pDCs). GBZ was added at 50 μM and inhibited IFN-β and Interleukin-6 (IL-6) production in activated cells. B) hTLR4, hTLR3, hTLR9 and hTLR7 expressed in the reporter HEK-Blue™ cells are inhibited by GBZ. TLR-expressing HEK-Blue™ cells were respectively activated with 100 ng/mL LPS, 10 μg/mL poly I:C LMW, 2.5 μM ODN 2006 or 5 μg/mL imiquimod, respectively. GBZ was added at 50 μM. TLR activity was measured indirectly through SEAP activity as absorbance at 405 nm. […] Protein concentration of IFN-α and TNF-α secreted were measured at the indicated time points or at 16 h. […]
Given the efficiency of GBZ on mouse TLR3 and TLR9, we turned to human TLRs, in order to extend the relevance of our observations. GBZ-mediated inhibition was first evaluated on NF-kB signaling by monitoring secreted alkaline phosphatase (SEAP) reporter levels in HEK-293 cells expressing TLR3, TLR4, TLR7, TLR9 (FIG. 1B). […] The functionality of the TLR9 transduction pathway was next evaluated by using phospho-flow detection of 40S ribosomal protein S6 (rpS6) phosphorylation, a well characterized early signaling event down-stream of TLR activation by LPS or viruses.

NC(N)=N/N=C/c1c(Cl)cccc1Cl [GBZ, 2-(2,6-dichlorobenzylidene)-hydrazinecarboximidamide]
TLR7-dependent activation of the SEAP reporter: inhibited
